In US20240207355A1, “PHARMACEUTICAL COMPOSITION FOR ENHANCING ANTICANCER EFFECT OF ANTICANCER DRUG” (L-BASE CO., LTD., priority 2021, published 2024):
Where two headings read alike, the source gives them in different places. Ends that are not written are not given here. Peptide text beside a SMILES is read from it. * marks the point of attachment. Benzoyl(3-Ph) = O=C(c1cccc(-c2ccccc2)c1)*; Benzoyl(4-OMe) = COc1ccc(C(=O)*)cc1

How the values were obtained:
[1] = tested on: H1975 cell line; conditions: H1975 Balb/C nude mice
Procedure: H1975 cells were mixed with matrigel in a 1:1 ratio at a concentration of 5×10^6 cells/mouse, and each was subcutaneously inoculated at 200 μl into the flank of the mouse once. After the inoculation, it was confirmed that the volume of the formed tumor reached 70˜130 mm^3, and then random grouping was carried out. After the grouping, Osimertinib was administered orally every day, and after the growth of the tumor was inhibited, the point of re-growth was identified and the co-administration with the test substance was started. The test substances were administered intravenously 7 times at 2-day intervals.
After inoculating the H1975 cell line in 4-week-old female Balb/C nude mice, the presence and growth of the tumor were observed and the short and long axes of the tumor were measured to calculate the volume. When the volume of the tumor reached 70-120 mm^3, the groups were randomly separated and PBS, the negative control group, and Osimertinib at 5 mpk were orally administered daily.
The first day of administration was set as day 1, and the volume of the tumor was measured twice a week.
Accordingly, the individuals who orally administered 5 mpk Osimertinib every day for 28 days were further divided into two groups and observed until the 32nd day of administration.

[2] = tested on: lung cancer cell line H1975; test: MTT assay, cell viability inhibition in lung cancer cell line H1975; conditions: for cytotoxicity at 0.5 µM: Osimertinib 0.5 μM alone; for cell viability decrease compared to the control group: human
Procedure: (§1) Specifically, cells were seeded at 2×10^3/100 μl per well on a 96-well plate, and after culturing for 24 hours, the compound according to the present invention was administered; 4 hours later, anticancer drugs were treated to each cancer cell. The treatment concentration and treatment time of the compound and anticancer drug are specifically described in the embodiment. After completing the treatment of the compound and anticancer drug, CellTiter-96® reagent (Promega Co., USA) was reacted at 5% CO2, 37° C. after adding 10 μl per well. After 3 hours, absorbance was measured at 490 nm using a spectrophotometer (SPECTROstar^Nano, BMG).
H1975 was treated with 3-PhPh-[…] at a concentration of 25 μM and after 4 hours, Osimertinib was administered at a concentration of 1.25 μM, either alone or in combination, and the cell viability inhibitory effects were compared 68 hours later.
Subsequently, H1975 was treated with 4-PhPh-[…] at a concentration of 2 μM, and at the same time, Osimertinib was administered at a concentration of 1 μM, either alone or in combination, and the cell viability inhibitory effects were compared 48 hours later.
Next. H1975 was treated with Ac-[…] at a concentration of 10 μM, and at the same time, Osimertinib was administered at a concentration of 0.5 μM, either alone or in combination, and the cell viability inhibitory effects were compared 48 hours later.
Furthermore, H1975 was treated with 4-MeOPh-[…] at a concentration of 10 μM and simultaneously, a targeted anticancer drug, Osimertinib, was administered either alone or in combination at a concentration of 0.5 μM, and after 48 hours, the effects of inhibiting cell viability were compared.
Similarly, the lung cancer cell line H1975 was treated with 4-PhPh-[…] at a concentration of 2 μM according to the MTT assay method described in the “Experimental Materials and Methods”. At the same time, Alimta, a chemotherapeutic agent, was administered either alone or in combination at a concentration of 0.2 μM, and after 48 hours, the effects of inhibiting cell viability were compared.
The anticancer effect of the triple co-administration was compared with the 3-PhPh-[…] single treatment group, and the Osimertinib and Alimta co-treatment group.

[3] = tested on: non-small cell lung cancer cell line PC9/OR; test: MTT assay, cell viability inhibition in non-small cell lung cancer cell line PC9/OR; assay type: cell-based; conditions: 68 h
[4] = tested on: H1975/OR; test: MTT assay, cell viability inhibition in lung cancer cell line H1975/OR; conditions: for cell viability decrease compared to the control group: human, 5 μM
Procedure: as §1
Additionally, H1975/OR was treated with 3-PhPh-[…] at a concentration of 5 μM, and after 4 hours, the chemotherapeutic agent Alimta was administered either alone or in combination at a concentration of 0.1 μM, and after 72 hours, the effects of inhibiting cell viability were compared.
Subsequently, H1975/OR was treated with 3-PhPh-[…] at a concentration of 5 μM, and after 4 hours, the targeted anticancer drug Osimertinib was administered either alone or in combination at a concentration of 2.5 μM, and after 68 hours, the effects of inhibiting cell viability were compared.

[5] = tested on: lung cancer cell line H820; test: MTT assay, cell viability inhibition in lung cancer cell line H820; assay type: cell-based
Procedure: First, [sequence] was administered at a concentration of 10 μM to H820, and then, the targeted anticancer drug Osimertinib was administered either alone or in combination at a concentration of 5 μM, and the cell viability inhibitory effect was compared 48 hours later.

[6] = tested on: breast cancer cell line HCC1937; test: MTT assay, cell viability inhibition in breast cancer cell line HCC1937; assay type: cell-based
Procedure: After 24 hours, the cell viability inhibitory effect was compared.
After 48 hours, the cell viability inhibitory effect was compared.
After 72 hours, the cell viability inhibitory effect was compared.

[7] = tested on: p-Beclin1S15; test: Immunohistochemical staining of p-Beclin1S15 in H820 tumor tissue; assay type: in vivo; conditions: H820 nude mice tumor; 3-PhPh-AQTGTGKT 10 mpk alone, 7 times at 2-day intervals; IHC; FIG. 7
Procedure: Tissue embedded in paraffin was cut to a thickness of 4 μm and affixed to a slide, then thoroughly dried and the IHC experiment procedure was performed. Each slide was deparaffinized, and endogenous enzymes were removed using citrate buffer (pH 6.0). Then, p-Beclin1S15 antibody was diluted to 1:100 and treated for 15 hours at 4° C. After washing 4 times with TBST wash buffer, rabbit HRP was treated for secondary antibody reaction and reacted at room temperature for 30 minutes. After the substrate for the antibody reaction was added, when the color appeared, the slide was washed and sealed, and after slide scanning, the result was read.
Nude mice transplanted with H820 lung cancer cell line, an animal model of lung cancer described in the “Experimental Materials and Methods,” was treated 7 times at 2-day intervals for 14 days with 3-PhPh-[…] at a dose of 10 mpk. Osimertinib was orally administered daily at 2.5 mpk, followed by tumor sampling and p-Beclin1S15 immunostaining.

[8] = tested on: H820 lung cancer cell line; test: Heterotransplant lung cancer animal model (H820), tumor growth; assay type: in vivo; conditions: H820 nude mice; 3-PhPh-AQTGTGKT 10 mpk alone, 7 times at a two-day interval for 14 days; FIG. 6A
Procedure: The test substances were administered intravenously and orally 7 times at 2-day intervals.
Nude mice transplanted with H820 lung cancer cell line, an animal model of lung cancer described in the “Experimental Materials and Methods,” was treated 7 times at a two-day interval for 14 days with 3-PhPh-[…] at a dose of 10 mpk, and Osimertinib was orally administered daily at 2.5 mpk. Then, the growth of the tumor was compared.

## C=CC(=O)Nc1cc(Nc2nccc(-c3cn(C)c4ccccc34)n2)c(OC)cc1N(C)CCN(C)C [Osimertinib]
[1]; Osimertinib 5 mpk orally daily, before resistance, P<0.001
  growth of the tumor compared to the PBS group: significantly suppressed
[1]; all groups
  weight loss or death of animals during the experiment: No weight loss or death
[2]; Homo sapiens, NCI-H1975, 48 h, read-out: cell viability decrease compared to the control group, H1975, 48 hours, FIG. 1C
  cytotoxicity at 0.5 µM: ~12%
[2]; Homo sapiens, NCI-H1975, 48 h, read-out: cell viability decrease compared to the control group, H1975, 48 hours, FIG. 1D
  cytotoxicity at 0.5 µM: ~21%
[2]; Homo sapiens, NCI-H1975, 48 h, read-out: cell viability decrease compared to the control group, H1975, Osimertinib 1 μM alone, 48 hours, FIG. 1B
  cytotoxicity at 1 µM: ~5%
[2]; Homo sapiens, NCI-H1975, 68 h, read-out: cell viability decrease compared to the control group, H1975, Osimertinib 1.25 μM alone, 68 hours, FIG. 1A
  cytotoxicity at 1.25 µM: ~19%
[3]; PC9-OR, read-out: cell viability decrease compared to the control group
  cytotoxicity at 4 µM: ~10%
[4]; Homo sapiens, NCI-H1975, 68 h, read-out: cell viability decrease compared to the control group
  cytotoxicity at 2.5 µM: ~7%
[5]; NCI-H820, 48 h, read-out: cell viability decrease compared to the control group
  cytotoxicity at 5 µM: ~28%
[5]; NCI-H820, 72 h, read-out: cell viability decrease compared to the control group
  cytotoxicity at 6 µM: ~15%

## Nc1nc2[nH]cc(CCc3ccc(C(=O)N[C@@H](CCC(=O)O)C(=O)O)cc3)c2c(=O)[nH]1 [Alimta, Pemetrexed, reference compound]
[2]; Homo sapiens, NCI-H1975, 48 h, read-out: cell viability decrease compared to the control group, H1975, Alimta 0.2 μM alone, 48 hours, FIG. 1E
  cytotoxicity at 0.2 µM: ~6%
[4]; Homo sapiens, NCI-H1975, 72 h, read-out: cell viability decrease compared to the control group
  cytotoxicity at 0.1 µM: ~8.3%

## COc1ccc(C(=O)N[C@@H](C)C(=O)N[C@@H](CCC(N)=O)C(=O)N[C@H](C(=O)NCC(=O)N[C@H](C(=O)NCC(=O)N[C@@H](CCCCN)C(=O)N[C@H](C(=O)O)[C@@H](C)O)[C@@H](C)O)[C@@H](C)O)cc1 ({Benzoyl(4-OMe)}-AQTGTGKT-OH)
[2]; 48 h, 10 μM
  cell viability decrease compared to the control group: about 6%
[6]; human, 48 h, 5 μM
  decrease in cell viability compared to the control group: about 4.6%

## O=C(c1cc(Cc2n[nH]c(=O)c3ccccc23)ccc1F)N1CCN(C(=O)C2CC2)CC1 [Olaparib, reference compound]
[6]; Homo sapiens, HCC1937, 24 h, read-out: decrease in cell viability compared to the control group
  cytotoxicity at 2.5 µM: ~1.2%

## C[C@H](NC(=O)c1cccc(-c2ccccc2)c1)C(=O)N[C@@H](CCC(N)=O)C(=O)N[C@H](C(=O)NCC(=O)N[C@H](C(=O)NCC(=O)N[C@@H](CCCCN)C(=O)N[C@H](C(=O)O)[C@@H](C)O)[C@@H](C)O)[C@@H](C)O ({Benzoyl(3-Ph)}-AQTGTGKT-OH)
[2]; 68 h, 25 μM
  cell viability decrease compared to the control group: about 10%
[3]; human, 25 μM
  cell viability decrease compared to the control group: approximately 0.2%
[7]
  expression of p-Beclin1S15 compared to the group receiving Osimertinib alone: reduced
[6]; human, 72 h, 10 μM
  decrease in cell viability compared to the control group: about 3%
[8]
  tumor viability reduction compared to the control group (PBS administered group): about 38%
[4]; 68 h
  cell viability decrease compared to the control group: about 17%
[4]; 72 h
  cell viability decrease compared to the control group: about 6.5%
[5]; human, 72 h, 40 μM
  cell viability decrease compared to the control group: about 8%

## AQTGTGKT [alanine-glutamine-threonine-glycine-threonine-glycine-lysine-threonine]
[6]; HCC1937, AQTGTGKT 5 μM alone, 24 hours, FIG. 4A
  decrease in cell viability compared to the control group: no decrease in cell viability
[5]; H820, AQTGTGKT 10 μM alone, 48 hours, FIG. 2A
  cell viability decrease compared to the control group: about 15%
